Measurements reported in PubChem BioAssay AID651652 (NMMLSC, 2012).
pEC50: −log10 of the molar value. The source made the active and inactive calls.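 Rule for the calls: active = viability at the highest tested concentration below 50%; inactive = the rest.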

Columns and labels:
[1] = tested on: K562 vector control viability, CellTiter-Glo, 18 h; assay: concentration-response toxicity in K562 empty-vector line, CellTiter-Glo luminescence, ABCB6 inhibitor project counterscreen, PowderSet01 powders (AID 651652)
[2] = as above; details: K562 vector control viability, CellTiter-Glo, 18 h; at 100 µM (top of the series)

| Compound | pEC50 [1] | viability [2] |
| --- | --- | --- |
| CCOc1ccccc1NC(=O)c1nc(S(=O)(=O)Cc2cccc(C)c2)ncc1Cl | 4.92 |  |
| CC(=O)Nc1ccc(NC(=O)c2nc(S(=O)(=O)Cc3ccccc3)ncc2Cl)cc1 |  | 58% (inactive) |
| CC(=O)Nc1ccc(NC(=O)c2nc(S(=O)(=O)Cc3cccc(C)c3)ncc2Cl)cc1 |  | 51.9% (inactive) |
| CCc1ccc(NC(=O)c2nc(S(=O)(=O)Cc3ccccc3)ncc2Cl)cc1 | 5.35 |  |
